Data reported in US5622951A, “Piperazine derivatives as 5-HT antagonists” (John Wyeth & Brother Ltd., priority 1993, dated 1997).

Key:
5-HT1A receptor [1] = target: T1, 5-HT1A receptor (Rattus norvegicus, UniProt P19327); experiment: 5-HT1A receptor binding in rat hippocampal membrane homogenate (Alexander and Wood)
T1 construct: rat hippocampal membrane homogenate; from tissue; host or cells: rat hippocampus, membrane homogenate
T1 sequence (P19327 1-422): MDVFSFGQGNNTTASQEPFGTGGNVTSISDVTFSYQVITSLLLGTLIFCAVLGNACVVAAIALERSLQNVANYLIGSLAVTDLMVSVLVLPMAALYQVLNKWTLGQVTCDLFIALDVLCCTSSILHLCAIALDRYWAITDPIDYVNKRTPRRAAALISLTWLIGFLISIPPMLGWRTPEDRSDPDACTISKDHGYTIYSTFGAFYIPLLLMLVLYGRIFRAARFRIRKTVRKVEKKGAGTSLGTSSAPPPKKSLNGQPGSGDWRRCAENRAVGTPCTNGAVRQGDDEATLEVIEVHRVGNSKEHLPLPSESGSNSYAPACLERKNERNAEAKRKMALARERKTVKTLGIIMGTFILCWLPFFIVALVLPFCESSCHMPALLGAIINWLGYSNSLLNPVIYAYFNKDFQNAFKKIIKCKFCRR
Experimental: The compounds of the invention were tested for 5-HT1A receptor binding activity in rat hippocampal membrane homogenate by the method of B S Alexander and M D Wood, J Pharm Pharmacol, 1988, 40, 888-891.

5-HT1A receptor [2] = target: T2, 5-HT1A receptor (Cavia porcellus, UniProt A0A286Y074); experiment: 5-HT1A receptor antagonism: antagonism of 5-carboxamidotryptamine in the guinea-pig ileum in vitro (Fozard et al); conditions: read-out: pA2, 5-HT1A receptor antagonism (converted)
T2 construct: in the guinea-pig ileum in vitro; from tissue; host or cells: guinea-pig ileum, isolated
T2 sequence (A0A286Y074 1-421): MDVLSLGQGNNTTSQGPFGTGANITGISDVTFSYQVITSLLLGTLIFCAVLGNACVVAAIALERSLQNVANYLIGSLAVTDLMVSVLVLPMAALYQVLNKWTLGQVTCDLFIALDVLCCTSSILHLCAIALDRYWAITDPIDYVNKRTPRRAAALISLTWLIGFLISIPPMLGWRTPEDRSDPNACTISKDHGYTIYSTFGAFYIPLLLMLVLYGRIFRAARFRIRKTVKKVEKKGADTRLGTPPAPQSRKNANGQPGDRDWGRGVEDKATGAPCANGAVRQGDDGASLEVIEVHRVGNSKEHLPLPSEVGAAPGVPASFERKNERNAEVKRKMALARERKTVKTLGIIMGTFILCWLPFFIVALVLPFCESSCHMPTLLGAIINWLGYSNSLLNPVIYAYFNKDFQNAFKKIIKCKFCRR
Experimental: The compounds are tested for 5-HT1A receptor antagonism activity in a test involving the antagonism of 5-carboxamidotryptamine in the guinea-pig ileum in vitro (based upon the procedure of Fozard et at, Br J Pharmac, 1985, 86, 601P).

SMILES	IC50 (5-HT1A receptor [1]) [nM]	Kb (5-HT1A receptor [2]) [nM]
COc1ccccc1N1CCN(C2CC=C(c3ncc(C)cc3C)CC2)CC1 (stereo not shown) [Example 19, 1-(2-Methoxyphenyl)-4-[1-(3,5-dimethylpyridin-2-yl)-cyclohex-1-en-4-yl]piperazine]	1.84	–
COc1ccccc1N1CCN([C@H]2CC[C@H](c3ccccc3)CC2)CC1 [Example 1 (trans), trans-1-(2-methoxyphenyl)-4-(1-phenylcyclohex-4-yl)piperazine]	0.6	0.794
COc1ccccc1N1CCN([C@H]2CC[C@H](c3ncc(C)cc3C)CC2)CC1 [Example 20, Trans-1-(2-Methoxyphenyl)-4-[1-(3,5-dimethylpyridin-2-yl)-cyclohex-4-yl]piperazine]	1.6	–
